This test in a line: RSV-A Assay: The description is Japanese.

The structures appear in SMILES notation. Values joined by “and” are separate entries in the source; they are usually repeats but may differ in a detail not shown here. Equal entries are not always repeated. Some results are limits rather than exact numbers.

The molecule `CS(=O)(=O)c1ccc(-c2nnc(NC3N=C(c4ccccc4)c4ccccc4NC3=O)o2)cc1` (stereo not given) had an EC50 above 800 nM.
Turning to `O=C1Nc2ccccc2C(c2ccccc2)=N[C@H]1Nc1nnc(-c2ccco2)o1`, the EC50 is above 800 nM.
The result for `CC1(c2nnc(NC3N=C(c4ccccc4)c4ccccc4NC3=O)o2)CC1` (stereo not given) reads above 800 nM; that for `O=C1Nc2ccccc2C(c2ccccc2)=NC1Nc1nnc(-c2cccnc2N2C[C@H]3C[C@@H]2CO3)o1` (stereo not given in full), above 800 nM.
Take `CN1CCc2nc(-c3nnc(NC4N=C(c5ccccc5)c5ccccc5NC4=O)o3)sc2C1` (stereo not given): the concentration giving a half-maximal response (EC50) is above 800 nM.
To `COC1CN(c2cc(C(F)(F)F)cnc2-c2nnc(N[C@H]3N=C(c4ccccc4)c4ccccc4NC3=O)o2)C1` belongs above 800 nM; to `O=C1Nc2ccccc2C(c2ccccc2)=NC1Nc1nnc(-c2ccc(-n3ccnc3)nc2)o1` (stereo not given), above 800 nM; to `O=C1Nc2ccccc2C(c2ccccc2)=N[C@@H]1Nc1nnc(-c2ncc(C(F)(F)F)cc2N[C@@H]2CCC[C@@H]2O)o1`, “in the range around 600 nM”.
Take `O=C1Nc2ccccc2C(c2ccccc2)=NC1Nc1nnc(-c2cccnn2)o1` (stereo not given): the EC50 was above 800 nM.
Take `COc1ccc(CN2C(=O)C(C)(N=[N+]=[N-])N=C(c3ccccc3)c3ccccc32)cc1` (stereo not given): the concentration for a half-maximal effect (EC50) was above 800 nM.
The result for `COC[C@@H]1C[C@H]1c1cc(C(F)(F)F)cnc1-c1nnc(N[C@@H]2N=C(c3ccccc3)c3ccccc3NC2=O)o1` reads above 800 nM.
Take `C[C@H]1CN(c2cc(C#N)cnc2-c2nnc(N[C@H]3N=C(c4ccccc4)c4ccccc4NC3=O)o2)CCO1`: the EC50 was below 400 nM.
The result for `O=C1Nc2ccccc2C(c2ccccc2)=NC1Nc1nnc(-c2ccc(C(F)(F)F)nc2N2CCOCC2)o1` (stereo not given) reads “in the range around 600 nM”; that for `CCOC(=O)c1csc(C(F)(F)C(F)(F)F)n1`, below 400 nM; that for `O=C1Nc2ccccc2C(c2ccccc2)=NC1Nc1nnc(-c2ccc3nc[nH]c3c2)o1` (stereo not given), > 800 nM and in the range around 600 nM.
To `COC[C@@H](C)Nc1sc(C(F)(F)F)nc1-c1nnc(N[C@H]2N=C(c3ccccc3)c3ccccc3NC2=O)o1` belongs “in the range around 600 nM”.
To `O=C1Nc2ccccc2C(c2ccccc2)=NC1Nc1nnc(-c2ccc(N3CCOCC3)cc2)o1` (stereo not given) belongs below 400 nM; to `O=C1Nc2ccccc2C(c2ccccc2)=N[C@@H]1Nc1nnc(-c2oc3cccc(F)c3c2N2CCOCC2)o1`, below 400 nM.
The molecule `CN(CC(C)(C)O)c1cc(C(F)(F)F)cnc1-c1nnc(N[C@H]2N=C(c3ccccc3)c3ccccc3NC2=O)o1` gave an EC50 above 800 nM.
The result for `CN1CCC(c2nnc(NC3N=C(c4ccccc4)c4ccccc4NC3=O)o2)CC1` (stereo not given) reads above 800 nM; that for `Cc1nc2ccc(-c3nnc(NC4N=C(c5ccccc5)c5ccccc5NC4=O)o3)cc2s1` (stereo not given), “in the range around 600 nM”; that for `O=C1Nc2ccccc2C(c2ccccc2)=N[C@@H]1Nc1nnc(-c2nc(C3CCCCC3)sc2N2CCOCC2)o1`, below 400 nM.
The result for `O=C1Nc2ccccc2C(c2ccccc2)=N[C@@H]1Nc1nnc(-c2nc(C3CC3)ccc2N2CCOCC2)o1` reads below 400 nM; that for `Cc1cc(-c2nnc(N[C@H]3N=C(c4ccccc4)c4ccccc4NC3=O)o2)c(N2CCOCC2)s1`, below 400 nM; that for `O=C1Nc2ccccc2C(c2ccccc2)=NC1Nc1nnc(-c2ccncc2N2CCOCC2)o1` (stereo not given), “in the range around 600 nM”.
The result for `O=C1Nc2ccccc2C(c2ccccc2)=NC1Nc1ccc(-c2ccc(F)cc2)nn1` (stereo not given) reads above 800 nM.
Regarding `CCOC(=O)c1cn(CC)nc1N1CCOCC1`, the half-maximal effective concentration (EC50) was below 400 nM.
The result for `COC[C@@H]1CCCN1c1sc(C(F)(F)F)nc1-c1nnc(N[C@H]2N=C(c3ccccc3)c3ccccc3NC2=O)o1` reads above 800 nM.
In the case of `O=C1Nc2ccccc2C(c2ccccc2)=N[C@@H]1Nc1nnc(-c2cc(C(F)(F)F)sc2N2CCOCC2)o1`, the concentration for a half-maximal effect (EC50) is below 400 nM.
In turn, `COCCCc1cc(C(F)(F)F)cnc1-c1nnc(N[C@H]2N=C(c3ccccc3)c3ccccc3NC2=O)o1` came in with an EC50 above 800 nM.
To `O=C1Nc2ccccc2C(c2ccccc2)=NC1Nc1nc2ccc(F)cc2o1` (stereo not given) belongs above 800 nM; to `O=C1Nc2ccccc2C(c2ccccc2)=NC1Nc1nnc(-c2ncco2)o1` (stereo not given), above 800 nM; to `NNC(=O)c1cc(F)cnc1N1CCOCC1`, “in the range around 600 nM”.
The result for `N#Cc1cnc(-c2nnc(N[C@H]3N=C(c4ccccc4)c4ccccc4NC3=O)o2)c(N2CC3CCC(C2)O3)c1` reads below 400 nM; that for `COC1CCN(c2ncccc2-c2nnc(NC3N=C(c4ccccc4)c4ccccc4NC3=O)o2)CC1` (stereo not given), above 800 nM; that for `COc1ccnc(-c2nnc(NC3N=C(c4ccccc4)c4ccccc4NC3=O)o2)c1` (stereo not given), above 800 nM.
For `O=C1Nc2ccccc2C(c2ccccc2)=NC1Nc1nnc(-c2cscn2)o1` (stereo not given), the EC50 result was “in the range around 600 nM”.
As for `NS(=O)(=O)c1ccc(-c2nnc(NC3N=C(c4ccccc4)c4ccccc4NC3=O)o2)cc1` (stereo not given), the EC50 entry is “in the range around 600 nM”.
`O=C1Nc2ccccc2C(c2ccccc2)=N[C@@H]1Nc1nnc(-c2nc(-c3ccccc3F)sc2N2CCOCC2)o1` showed an EC50 below 400 nM.
To `O=C1Nc2ccccc2C(c2ccccc2)=NC1Nc1cc(N2CCOCC2)cnn1` (stereo not given) belongs above 800 nM.
To `CC(C)(C)c1nnc(NC2N=C(c3ccccc3)c3ccccc3NC2=O)o1` (stereo not given) belongs above 800 nM; to `O=C1Nc2ccccc2C(c2ccccc2)=N[C@@H]1Nc1nnc(-c2ccc(F)cc2)o1`, “in the range around 600 nM”; to `O=C1Nc2ccccc2C(c2ccccc2)=NC1Nc1nnc(-c2ccc(F)nc2N2CCOCC2)o1` (stereo not given), “in the range around 600 nM and < 400 nM”.
To `CN(C)c1cc(C(F)(F)F)cnc1-c1nnc(N[C@H]2N=C(c3ccccc3)c3ccccc3NC2=O)o1` belongs above 800 nM.
In the case of `O=C1Nc2ccccc2C(c2ccccc2)=N[C@@H]1Nc1nnc(-c2ncc(C(F)(F)F)cc2NC[C@H]2CCCO2)o1`, the EC50 is below 400 nM.
To `COCCNc1sccc1-c1nnc(N[C@H]2N=C(c3ccccc3)c3ccccc3NC2=O)o1` belongs above 800 nM; to `Cc1nnc(NC2N=C(c3ccccc3)c3ccccc3NC2=O)o1` (stereo not given), above 800 nM.
`O=C1Nc2ccccc2C(c2ccccc2)=N[C@@H]1Nc1nnc(-c2ccc(N3C4CCC3COC4)cc2Cl)o1` yielded an EC50 above 800 nM.
The result for `O=C1Nc2ccccc2C(c2cccc(F)c2)=NC1Nc1nnc(-c2ccc(F)cc2)o1` (stereo not given) reads “in the range around 600 nM”.
To `COCc1nnc(NC2N=C(c3ccccc3)c3ccccc3NC2=O)o1` (stereo not given) belongs above 800 nM; to `O=C1Nc2ccccc2C(c2ccccc2)=N[C@@H]1Nc1nnc(-c2ncc(F)cc2N2CC3CCC(C2)O3)o1`, below 400 nM; to `O=C1Nc2ccccc2C(c2ccccc2)=N[C@@H]1Nc1nnc(-c2cnc(N3CC4CCC(C3)O4)nc2)o1`, above 800 nM.
Molecule `O=C1Nc2ccccc2C(c2ccccc2)=N[C@@H]1Nc1nnc(-c2cccnc2N2CCn3ncnc3C2)o1` showed an EC50 above 800 nM.
Consider `COc1cccc(-c2nnc(NC3N=C(c4ccccc4)c4ccccc4NC3=O)o2)n1` (stereo not given), for which the EC50 is below 400 nM.
For the molecule `N#Cc1ccc(-c2nnc(NC3N=C(c4ccccc4)c4ccccc4NC3=O)o2)s1` (stereo not given), the EC50 is below 400 nM.
The molecule `CS(=O)(=O)Cc1nnc(NC2N=C(c3ccccc3)c3ccccc3NC2=O)o1` (stereo not given) displayed an EC50 above 800 nM.
For `CC1(C)CC(c2nnc(NC3N=C(c4ccccc4)c4ccccc4NC3=O)o2)C1` (stereo not given), the EC50 was above 800 nM.
On to `O=C1Nc2ccccc2C(c2ccccc2)=N[C@@H]1Nc1nnc(-c2ncc(C3=CCCCC3)cc2N2CCOCC2)o1`, for which the EC50 entry is “in the range around 600 nM”.
To `O=C1Nc2ccccc2C(c2ccccc2)=N[C@@H]1Nc1nnc(-c2ncc(C(F)(F)F)cc2N2CCOC3CC32)o1` (stereo not given in full) belongs below 400 nM; to `O=C1Nc2ccccc2C(c2ccccc2)=NC1Nc1nnc(Cc2ccccc2)o1` (stereo not given), above 800 nM; to `CN1CCN(c2cc(C(F)(F)F)cnc2-c2nnc(N[C@H]3N=C(c4ccccc4)c4ccccc4NC3=O)o2)CC1=O`, above 800 nM.
The result for `O=C1Nc2ccccc2C(c2ccccc2)=N[C@@H]1Nc1nnc(-c2ncc3ccccc3c2N2CCOCC2)o1` reads above 800 nM; that for `N#Cc1ccc(-c2nnc(N[C@H]3N=C(c4ccccc4)c4ccccc4NC3=O)o2)c(-c2ccoc2)c1`, above 800 nM; that for `N#Cc1cccc(-c2nnc(NC3N=C(c4ccccc4)c4ccccc4NC3=O)o2)c1` (stereo not given), above 800 nM.
In turn, `CC(C)n1cc(-c2nnc(N[C@H]3N=C(c4ccccc4)c4ccccc4NC3=O)o2)c(N2CCOCC2)n1` returned an EC50 below 400 nM.
For `O=C1Nc2ccccc2C(c2ccccc2)=NC1Nc1ncc(-c2ccc(Br)cc2)o1` (stereo not given), the EC50 was above 800 nM.
To `Cc1nc(-c2nnc(N[C@H]3N=C(c4ccccc4)c4ccccc4NC3=O)o2)c(C2=CCOCC2)s1` belongs below 400 nM; to `CSC(=N)NC1N=C(c2ccccc2)c2ccccc2NC1=O` (stereo not given), below 400 nM.
For `O=C1Nc2ccccc2C(c2ccccc2)=NC1Nc1cc(N2CCOCC2)ncn1` (stereo not given), the EC50 was above 800 nM.
To `O=C1Nc2ccccc2C(c2ccccc2)=NC1Nc1cc(Oc2ccccc2)ncn1` (stereo not given) belongs above 800 nM; to `C[C@@H]1CN(c2cc(F)ccc2-c2nnc(N[C@H]3N=C(c4ccccc4)c4ccccc4NC3=O)o2)C[C@H](C)O1`, above 800 nM; to `CCOC(=O)c1cnn2ccc(C)cc12`, above 800 nM.
On to `C[C@@H]1COCCN1c1cc(C#N)cnc1-c1nnc(N[C@H]2N=C(c3ccccc3)c3ccccc3NC2=O)o1`, for which the EC50 was below 400 nM.
To `O=C1Nc2ccccc2C(c2ccccc2)=NC1Nc1ccc(-c2ccccc2N2CCOCC2)nn1` (stereo not given) belongs above 800 nM.
The result for `N#Cc1cnc(-c2nnc(NC3N=C(c4ccccc4)c4ccccc4NC3=O)o2)c(N2CCOCC2)c1` (stereo not given) reads below 400 nM.
As for `COC(=O)c1ncc(C#N)cc1N1CCOCC1`, the EC50 is below 400 nM.
Turning to `O=C1Nc2ccccc2C(c2ccccc2)=N[C@@H]1Nc1nnc(-c2ncc(C(F)(F)F)cc2NCc2ccco2)o1`, the EC50 was above 800 nM.
The molecule `CC(C)(O)CNc1cc(C(F)(F)F)cnc1-c1nnc(N[C@H]2N=C(c3ccccc3)c3ccccc3NC2=O)o1` returned an EC50 below 400 nM.
On to `COCCc1cccn2ncc(-c3nnc(N[C@H]4N=C(c5ccccc5)c5ccccc5NC4=O)o3)c12`, for which the EC50 was above 800 nM.
To `N#Cc1ccc(-c2ccc(NC3N=C(c4ccccc4)c4ccccc4NC3=O)nn2)cc1` (stereo not given) belongs below 400 nM.

A word on the EC50: it is the concentration giving half of the maximal effect. Low readings indicate higher potency in that assay, high ones lower potency in that assay.

These data come from ChEMBL document CHEMBL5729210, “Benzodiazepine derivatives as RSV inhibitors” (2022).
